In patent US9907637B2, “Modular bioresorbable or biomedical, biologically active supramolecular materials” (SupraPolix B.V., priority 2005, dated 2018):

What was measured:
[1] = Extraction of peptide out of polymer films with water, LC-MS; format: physicochemical; conditions: 2 hours at 37° C. in 1 mL water, 4 mole % peptide
[2] = as above; format: physicochemical; conditions: for peptide dissolved: 80 minutes at 37° C. in a total volume of 5 mL water, 4 mole % peptide; for extraction: water 37° C., 4 mole % peptide in film of polymer of example 14
Method: The extraction of the peptide of example 18 and the peptide GRGDS without a UPy-unit out of films of example 29a was investigated with LC-MS measurements. The amount of peptide that was mixed in the polymeric materials is in both cases 4 mole %. Calibration was performed by quantification of one fragment of the parent ion (MS^2) of the peptides using different concentrations of the peptides. The surface area of the corresponding peak (in the total ion count) was calculated with the ICIS algorithm. The extraction experiments were performed as follows: the film was incubated at 37° C. for 5 minutes in 1 mL water, then the water was removed and the concentration of peptide was measured with the described LC-MS procedure (time-point: 5 minutes); another 1 mL water was added to the film which was subsequently incubated again for 5 minutes at 37° C. followed by removal of the water which was analysed with the LC-MS method (time-point: 10 minutes); another 1 mL water was added to the film and the sample was incubated for 10 minutes at 37° C. followed by removal of the water which was analysed with the LC-MS method (time-point: 20 minutes); incubation at 37° C. in another 1 mL water for 20 minutes, followed by removal of the water which was analysed with the LC-MS method (time-point: 40 minutes); and incubation at 37° C. in another 1 mL water for 40 minutes, followed by removal of the water which was analysed with the LC-MS method (time-point: 80 minutes).

Substance	peptide dissolved [1] [%]	peptide dissolved [2] [%]	extraction ([2]; time 5 min) [%]	extraction ([2]; time 10 min) [%]	extraction ([2]; time 20 min) [%]	dissolution of peptide from film ([2]; within 5 minutes, water at 37° C.)
GRGDS	101	105	91	97	100	almost all of the peptide is dissolved
UPy-GRGDS [Example 18]	64	76	39	60	76	
